The values below come from article PMC10384572, “Marine Meroterpenoids Isolated from Gongolaria abies-marina Induce Programmed Cell Death in Naegleria fowleri” (Pharmaceuticals, 2023).

Assay [1] has as its system N. fowleri ATCC® 30808 trophozoites. The assay can be described thus: Mitochondrial membrane potential (JC-1). The class given is cell-based, Naegleria fowleri. The following applies: IC90 of compound, 24 h. How it is done:
The evaluation of the programmed cell death induction by the meroterpenoids was performed in the ATCC® 30808™ N. fowleri trophozoites. Cells were incubated over 24 h with the IC90 (Table 1) of the compounds at 37 °C. In these experiments, the presence of different metabolic events which are characteristics of the programmed cell death process were evaluated. For this, five different apoptosis events marker kits (the Hoechst 33342/Propidium Iodide, SYTOX™ Green kit, CellROX® Deep Reagent, JC-1 Mitochondrial Membrane Potential Detection Kit, and the Celltiter-Glo® Luminescent Cell Viability Assay) were used according to manufacturer’s instructions. Furthermore, the percentage of stained cells was determined after incubating the treated and non-treated cells with the stains. The mitochondrial damage was evaluated using two different reagents. Firstly, the JC-1 Mitochondrial Membrane Potential Detection Kit (Cayman Chemicals Vitro SA, Madrid, Spain) was used to assess the failure of the mitochondrial membrane potential. Cells were incubated with the compounds at 37 °C to finally add the JC-1 reagent after 24 h. The JC-1 dye is presented in the mitochondria of untreated cells in aggregate form and emits red fluorescence. However, when the membrane potential decreases (unhealthy cells) the dye is presented in monomers, emitting green fluorescence. Images were obtained with an EVOS™ M5000 Imaging System (Invitrogen by Thermo Fisher Scientific). In the PCD assays, the number of stained and unstained cells was measured after the performance of the experiments. Regarding the JC-1 Mitochondrial Membrane Potential assays, the ratio between the emitted red fluorescence (at 595 nm) and green fluorescence (at 535 nm) was determined. For each kit, images (×40) with at least 80 cells were selected and analyzed. […] The graphs illustrate the mean value ± SD of three different tests. Finally, a one-way analysis of variance (ANOVA) was assessed to determine the statistical differences between the treated cells and the negative control amoebae, ** p < 0.01; *** p < 0.001; **** p < 0.0001 significant differences.

For assay [2] the test system is unchanged. As to the kind of experiment: ROS production (CellROX Deep Red). The class given is cell-based, Naegleria fowleri. The conditions noted are these: IC90 of compound, 24 h. How it is done: The evaluation of the programmed cell death induction by the meroterpenoids was performed in the ATCC® 30808™ N. fowleri trophozoites. Cells were incubated over 24 h with the IC90 (Table 1) of the compounds at 37 °C. In these experiments, the presence of different metabolic events which are characteristics of the programmed cell death process were evaluated. For this, five different apoptosis events marker kits (the Hoechst 33342/Propidium Iodide, SYTOX™ Green kit, CellROX® Deep Reagent, JC-1 Mitochondrial Membrane Potential Detection Kit, and the Celltiter-Glo® Luminescent Cell Viability Assay) were used according to manufacturer’s instructions. Furthermore, the percentage of stained cells was determined after incubating the treated and non-treated cells with the stains. The determination of ROS generation was carried out using the CellROX Deep Red fluorescent assay (Thermo Fisher Scientific) following manufacturer’s instructions. Briefly, N. fowleri’s trophozoites were incubated with compounds over 24 h at 37 °C. After that, the CellROX stain was added and incubated with the cells for 30 min in the dark. […] In the PCD assays, the number of stained and unstained cells was measured after the performance of the experiments. Regarding the JC-1 Mitochondrial Membrane Potential assays, the ratio between the emitted red fluorescence (at 595 nm) and green fluorescence (at 535 nm) was determined. For each kit, images (×40) with at least 80 cells were selected and analyzed. […] The graphs illustrate the mean value ± SD of three different tests. Finally, a one-way analysis of variance (ANOVA) was assessed to determine the statistical differences between the treated cells and the negative control amoebae, ** p < 0.01; *** p < 0.001; **** p < 0.0001 significant differences.

Assay [3] shares this test system. As to the kind of experiment: ATP production (Celltiter-Glo Luminescent Cell Viability Assay). The class given is cell-based, Naegleria fowleri. The conditions noted are these: IC90 of compound, 24 h, 2 × 10^5 cells/mL. How it is done: The evaluation of the programmed cell death induction by the meroterpenoids was performed in the ATCC® 30808™ N. fowleri trophozoites. Cells were incubated over 24 h with the IC90 (Table 1) of the compounds at 37 °C. In these experiments, the presence of different metabolic events which are characteristics of the programmed cell death process were evaluated. For this, five different apoptosis events marker kits (the Hoechst 33342/Propidium Iodide, SYTOX™ Green kit, CellROX® Deep Reagent, JC-1 Mitochondrial Membrane Potential Detection Kit, and the Celltiter-Glo® Luminescent Cell Viability Assay) were used according to manufacturer’s instructions. Furthermore, the percentage of stained cells was determined after incubating the treated and non-treated cells with the stains. On the other hand, the measurement of the ATP production was also assessed in order to confirm the mitochondrial damage in the amoebae. For this, the Celltiter-Glo® Luminescent Cell Viability Assay (Promega Biotech Ibérica, Madrid, Spain) was used. The emitted luminescence, which is proportional to the ATP levels, was measured in an EnSpire® Multimode Plate Reader (Perkin Elmer, Madrid, Spain). Experiments were performed in triplicate. In both treated and untreated cells, the ATP production of a concentration of 2 × 10^5 cells/mL was measured.
(Cellular ATP, detected with luciferase, serves as a proxy for viable cell number.)

Assay [4] relates to N. fowleri ATCC® 30215. The assay can be described thus: In vitro activity against N. fowleri trophozoites (alamarBlue), strain ATCC 30215. The class given is cell-based. The following applies: Naegleria fowleri, ATCC30215, 48 h, mean ± SD. The method, then:
The in vitro activity against N. fowleri trophozoites was evaluated in two different strains from the American Type Culture Collection (LG Promochem, Barcelona, Spain), ATCC® 30808™ and ATCC® 30215™. Cells were axenically grown in 2% Bactocasitone (w/v) medium (Thermo Fisher Scientific, Madrid, Spain) at 37 °C. Moreover, 10% (v/v) of fetal bovine serum (FBS) 0.3 μg/mL of Penicillin G Sodium Salt and 0.5 mg/mL of Streptomycin sulphate (Sigma-Aldrich, Madrid, Spain) were also added to the Bactocasitone medium.
For these assays, a colorimetric assay was conducted using the alamarBlue® reagent. Briefly, N. fowleri trophozoites were seeded in duplicate in a 96-well microtiter plate. After that, different concentrations of the evaluated meroterpenoids diluted in fresh Bactocasitone were added to the wells. The negative control consisted on the trophozoites incubated with the medium alone. Lastly, the alamarBlue® (Life Technologies, Madrid, Spain) reagent was added. Plates were incubated in slight agitation at 37 °C. After 48 h, the fluorescence of the wells was analyzed in an EnSpire Multimode Plate Reader (Perkin Elmer, Madrid, Spain) using a wavelength of excitation of 570 nm and a wavelength of emission of 585 nm.
In order to calculate the IC50 and IC90, a nonlinear regression analysis with a 95% confidence limit was performed.
The in vitro IC50, IC90, and CC50 of the compounds were determined by a non-linear regression with a 95% confidence limit. The SigmaPlot 12.0 software (Systat Sofware Inc., London, UK) was used to perform the data analysis using a paired two-tailed t-test. Values of p < 0.05 were considered significant. The data represent the mean value and the SD of the conducted three different experiments.
A general note: Alamar Blue is a resazurin reagent that responds to reducing activity.

One may read the IC50 as the concentration that gives 50% inhibition. The low end stands for greater potency in that assay, the high end for weaker potency in that assay. Broadly, the IC90 is the concentration at which the effect reaches the 90% level. The low end stands for an effect from little substance, the high end for a need for much substance. As to `COc1c(C)cc(O)cc1C/C=C(\C)CC(=O)C/C(C)=C/CC[C@@H](C)C(=O)/C=C/C(C)(C)O` [Gongolarone B (1), gongolarone B], in assay [1], the “Mitochondrial membrane potential (JC-1)” value was “mitochondrial membrane potential disruption”. In assay [2], the “ROS production versus negative control (CellROX deep red)” value is on record as “increased the level of ROS production”. Moreover, the “Decrease of ATP production compared to untreated cells” value in assay [3] came out at 85.75%. In assay [4], half-maximal inhibition (IC50) was put at 18.9 ± 0.94 µM and the IC90 stood at 68.3 ± 1.73 µM.
For `COc1c(C)cc(O)cc1C/C=C(\C)CC(=O)/C=C(/C)CCC[C@@H](C)C(=O)/C=C/C(C)(C)O` [6Z-1′Methoxyamentadione (2), 6Z-1′-methoxyamentadione] the same measures were “mitochondrial membrane potential disruption”, “increased the level of ROS production”, 92.49%, 13.3 ± 0.96 µM and 44.2 ± 14.9 µM.
For `COc1c(C)cc(O)cc1C/C=C(\C)CC(=O)/C=C(\C)CCCC(C)=O` [Cystomexicone B (6), cystomexicone B] the same measures were “mitochondrial membrane potential disruption”, “increased the level of ROS production”, 65.59%, 58.1 ± 5.85 µM and 260 ± 41.1 µM.
The like results for `COc1c(C)cc(O)cc1C/C=C(\C)CC(=O)/C=C(\C)CCC[C@@H](C)C(=O)/C=C/C(C)(C)O` [1′Methoxyamentadione (3), 1′-methoxyamentadione] were, in that order, “mitochondrial membrane potential disruption”, “increased the level of ROS production”, 82.62%, 16.5 ± 0.96 µM and 59.7 ± 20.2 µM.
